Measured values as given in US9566341B1, “Compounds including Cox inhibitor moiety and enhanced delivery of active drugs using same” (University of Kentucky Research Foundation, priority 2011, dated 2017).
“Also recorded” adds a separate entry of the source. Where two headings read alike, the source gives them in different places.

What was measured:
[1] = Enzymatic stability in hairless guinea pig plasma; assay type: in vitro ADME; details: for enzymatic stability half-life in hairless guinea pig plasma: HGP plasma, 37° C., n=3
Description: Chemical and enzymatic stability was determined for the codrugs. For chemical stability studies, the codrug was put in prewarmed 0.3M acetate buffer pH 5.0 after solubilization in <5% ACN, if required, at 32° C. in an incubator. Samples were withdrawn at regular intervals and injected into the HPLC after appropriate dilutions. Enzymatic stability studies are important for estimation of conversion of codrugs in the plasma. For plasma stability studies prewarmed HGP plasma at 37° C. was spiked with codrug solution and samples were withdrawn at regular intervals. 100 μl of plasma sample was extracted with 1 ml of 1:1 ACN:ethyl acetate, vortexed, centrifuged at 10,000 rpm for 20 minutes on a bench top Eppendorf Mini Spin®. The supernatant was decanted into a glass tube and evaporated under nitrogen. Samples were reconstituted in 100 μl ACN and injected onto the HPLC. All stability data was analyzed using pseudo first order kinetics. All stability studies were carried out at least, in triplicate.

[2] = In vitro diffusion study across microneedle-treated full thickness Yucatan miniature pig skin; assay type: in vitro ADME; details: for bioconversion of the codrug in the skin: parent drugs in receiver/skin
Description: For all in vitro experiments female Yucatan minipig skin (6 months old) were used. Skin sections were obtained by removing the subcutaneous fatty tissue by scalpel dissection, and were stored at −20° C. A PermeGear flow-through (In-Line, Riegelsville, Pa., USA) diffusion cell system was used for the skin permeation studies.
The skin was pierced 20 times with an array containing 5 MN (i.e., to make a total of 100 individual and non-over lapping piercings) before mounting the skin in the diffusion cell for the treatment group. The insertion of MN into skin was carried out manually by applying gentle finger pressure followed by instantaneous removal. MN's were distributed evenly within the 0.95 cm^2 area of skin and could easily be visualized after each 5 MN insertion, as to prevent reapplication in the same area. Single MN array of 5 were used simply out of ease for the experimental procedure. If any damage to an MN section was observed the section was replaced. […] Untreated skin samples were simply placed in the diffusion cells. Diffusion cells were kept at 32° C. using a circulating water bath. Data were collected using skin from a single pig 3-4 cells for the MN treated formulations.
The physiological receiver solution was water adjusted to pH 7.4 containing 20% ethanol, and the flow rate was adjusted to 1.5 ml/h. Each cell was charged with 0.25 ml of the donor in the donor compartment of the chamber. The diffusion cells were covered with a stopper to prevent evaporation. Samples were collected from the receiver compartment in six-hour increments over 48 h or for the length of the treatment. All samples were stored at 4° C. until analyzed by HPLC.
The in vitro permeation experiments were carried out to determine the transdermal flux of the parent drugs and the codrug, permeation coefficients as well as the concentration of the drug molecules in the skin at the end of the study. For all in vitro experiments Yucatan miniature pig (YP) skin was used. Full thickness skin was obtained by removing the subcutaneous fatty tissue by scalpel dissection, and stored at −20° C. A PermeGear flow-through (In-Line, Riegelsville, Pa., USA) diffusion cell system was used for the skin permeation studies. […] The skin was pierced 20 times with a 5 MN array (making 100 individual and non-over lapping piercings) before mounting the skin in the diffusion cell. MN pores were distributed evenly within the 0.95 cm^2 area of skin. Untreated skin samples were mounted directly onto the diffusion cells. The setup was maintained at 32° C. using a circulating water bath. Data collected using a minimum of 3-4 cells per treatment group. The receiver solution was water alkalified to pH 7.4 containing 20% ethanol at 37° C. Gentamycin sulfate (50 mg/L) was added to the receiver for 7 day studies as an antibacterial agent. The receiver flow rate was adjusted to 1.5 ml/h to maintain skin conditions. Each cell was charged with 0.25 ml of the donor and the diffusion cells were covered with a stopper to prevent evaporation of formulation. Samples were collected at regular increments over 48 hours or for the length of the treatment. Drug was concentrated 10 fold by evaporating 1 ml of the collected sample under nitrogen and reconstituting in 100 μl of ACN for quantification. All samples were stored at 4° C. until analyzed by HPLC. The skin was removed at the end of the study and the treatment area was diced into small pieces using a scalpel after removing all excess drugs from top of the skin. Drug was extracted out by immersing the skin pieces in ACN overnight in a shaker water bath at 32° C. Samples were injected into the HPLC after appropriate dilution for quantitative analysis. The donor was also removed and quantified at the end of the study by direct injection onto HPLC after suitable dilution using ACN. All data was analyzed using Fick's first law of diffusion. […]

[3] = Chemical stability in 0.3M acetate buffer pH 5.0 at 32° C.; assay type: physicochemical
Text: The chemical stability of the prodrugs to hydrolysis and solvolysis at the appropriate temperatures will be determined by measuring concentrations over time in the buffers and solvents used in the solubility and diffusion studies. Chemical degradation rate constants will be important in distinguishing enzymatic degradation from non-enzymatic degradation. Codrug enzymatic metabolism rate constants can also be determined in skin homogenates, to ascertain if the values are useful in the QSPR multiple regression analysis. The kinetics of codrug enzymatic degradation in skin homogenates will be done using abdominal plastic surgery samples. Enzymatic reaction rates will be determined at several different codrug concentrations. The skin is homogenized (Polytron tissue homogenizer and ground glass homogenizer fitted with a glass pestle) in HEPES-buffered Hanks' balanced salt solution and the supernatant is obtained. The enzymatic hydrolysis rates are determined in the homogenate at 37° C. The codrug and its metabolites will be obtained by solid-phase extraction, or another appropriate extraction method. Naltrexone and any other metabolite formed will be assayed by HPLC and expressed as moles of metabolite per minute per milligram of protein. Protein concentrations in the supernatant will be measured by the Bradford method. Controls containing only codrug and HEPES-buffered Hanks' balanced salt solution at 37° C. will also be monitored to determine non-enzymatic hydrolysis.
Chemical and enzymatic stability was determined for the codrugs. For chemical stability studies, the codrug was put in prewarmed 0.3M acetate buffer pH 5.0 after solubilization in <5% ACN, if required, at 32° C. in an incubator. Samples were withdrawn at regular intervals and injected into the HPLC after appropriate dilutions. Enzymatic stability studies are important for estimation of conversion of codrugs in the plasma. […] All stability data was analyzed using pseudo first order kinetics. […]

[4] = Concentration of saturated donor solution; assay type: physicochemical; details: base form; PG:ethanol:water=43:43:14
Description: Solubility studies are carried out by equilibrating large excesses of each drug with the solvent studied. The experiments will be done at skin surface temperature (32° C.). To hasten the attainment of equilibrium, each slurry will be continuously shaken or stirred. Samples will be taken, filtered with an appropriate filter for the solvent, measured with respect to volume, and either assayed directly by HPLC or evaporated to dryness and reconstituted for assay. Binding of the compounds to the filter will be checked to eliminate the possibility of drug adsorption on the filter and/or filter casing. All toxic solvents and other chemicals will be handled with caution, and fume hoods will be used when appropriate.
In vitro experiments. The goal of the first set of in vitro experiments was to estimate flux and skin concentration of the base form of the codrug.

[5] = system: hairless guinea pig micropores; assay: In vivo micropore visualization by gentian violet/India ink staining after MN treatment; details: codrug gel under occlusion, patch changed at 3.5 days
Text: The patches were removed at predetermined time points and the site was cleaned with sterile gauze. Gentian violet/India ink was applied as the dyeing agent at the MN treated sites and allowed to dry before excess dye was removed with ethanol and gauze. Both the dyes stain the viable epidermis but not the intact SC. […] The donor was removed from the top of the skin at the end of the study and analyzed by direct injection onto HPLC after suitable dilution using ACN.
All animal experiments were approved by the University of Kentucky IACUC. A proof of concept in vivo experiment was carried out. 4% w/w gels were prepared with the hydrochloride salt form of the codrug. Gels were formulated by dissolving 4% codrug salt in PG: buffer at pH 5.0=10:90 and 3.0% hydroxyethylcellulose (HEC) polymer (required to have a gel formulation). Polymer was dissolved over a 30 minute period to obtain a homogenous gel. The solution was stirred until a viscous gel resulted and then left at room temperature for 1½ to 2 hours to remove bubbles and ensure complete polymerization. The gel was saturated with excess solid and therefore was cloudy. MN treated animals were first cleaned topically with isopropyl alcohol, and 50 MN array was applied twice mutually perpendicular to each other to give a total of 100 pores at each site. 0.3 mL gel doses were applied to the dorsal region of the HGP. After application of the gel the skin was occluded with the occlusive patch and biocclusive tape was applied to prevent evaporation of the formulation. The patch was changed with new formulation at 3.5 days such that more than 50% intact codrug was always present in formulation. […] The patches were removed to obtain data at successive 24 h time intervals.
The patches were removed at predetermined time points and the site was cleaned with sterile gauze. Gentian violet/India ink was applied as the dyeing agent at the MN treated sites and allowed to dry before excess dye was removed with ethanol and gauze. Both the dyes stain the viable epidermis but not the intact SC.

[6] = in vivo, po, cited from earlier work
[7] = cited from earlier work

Structure (SMILES)	Enzymatic stability [1] [min]	enzymatic stability half-life in hairless guinea pig plasma [1]	enzymatic stability half-life in hairless guinea pig plasma ([1]; listed as Compound 2U) [min]	enzymatic stability half-life in hairless guinea pig plasma ([1]; listed as codrug) [min]	diclofenac skin concentration versus effective skin concentration goal of FIG. 5 [2]	flux of NTX from the codrug relative to diclofenac flux ([2]; FIG. 6)	bioconversion of the codrug in the skin ([2]; MN treated skin)	bioconversion of the codrug in the skin ([2]; MN treated skin, listed as Compound 2U)	bioconversion of the codrug in the skin ([2]; MN treated skin, listed as codrug)	steady state flux of naltrexone from the codrug ([2]; base form, saturated donor PG:ethanol:water=43:43:14, MN treated skin, 48 h, n=3)	steady state flux of diclofenac from the codrug ([2]; base form, saturated donor PG:ethanol:water=43:43:14, MN treated skin, 48 h, n=3, listed as Compound 2U)	Chemical stability [3] [days]	concentration of saturated donor solution [4] [µg/mL]	time the pores stay open after MN treatment [5] [days]	oral bioavailability [6]	oral bioavailability ([6]; listed as Naltrexone)	log P [7]
O=C(Cc1ccccc1Nc1c(Cl)cccc1Cl)Oc1ccc2c3c1O[C@H]1C(=O)CC[C@@]4(O)[C@@H](C2)N(CC2CC2)CC[C@]314 [Compound 2A]	6.4 ± 0.84	around 6 minutes	6.4 ± 0.84	6.4 ± 0.84	did not provide that level	twice as high	bioconverted completely in the skin	degraded in the skin to regenerate back the parent drugs	completely hydrolyzed in the skin; also recorded: degraded in the skin to regenerate back the parent drugs	0.42±0.12 nmol/(cm^2/h)	0.19±0.06 nmol/(cm^2/h)	3.9 ± 0.56	4500	7	–	–	–
O=C1CC[C@@]2(O)[C@H]3Cc4ccc(O)c5c4[C@@]2(CCN3CC2CC2)[C@H]1O5 [NTX, Naltrexone]	–	–	–	–	–	–	–	–	–	–	–	–	–	–	5-40%	five to forty	1.8
